From publication PMC10434272, “Overexpression of Eimeria tenella Rhoptry Kinase 2 Induces Early Production of Schizonts” (Microbiology Spectrum, 2023)

Key:
[1] = target: T1, EtROP2 (rhoptry kinase 2) (Eimeria tenella, UniProt U6KH66); set-up: gene ETH_00027700
[2] = target: T1, EtROP2 (rhoptry kinase 2); assay: ADP-Glo kinase assay with p120-TLTR peptide substrate, […] ATP; format: biochemical; set-up: gene ETH_00027700; EtROP2-GST, wild type, full-length, from Met1 to Glu671, produced in Sf9 cells

T1 sequence (U6KH66 entry or part of it): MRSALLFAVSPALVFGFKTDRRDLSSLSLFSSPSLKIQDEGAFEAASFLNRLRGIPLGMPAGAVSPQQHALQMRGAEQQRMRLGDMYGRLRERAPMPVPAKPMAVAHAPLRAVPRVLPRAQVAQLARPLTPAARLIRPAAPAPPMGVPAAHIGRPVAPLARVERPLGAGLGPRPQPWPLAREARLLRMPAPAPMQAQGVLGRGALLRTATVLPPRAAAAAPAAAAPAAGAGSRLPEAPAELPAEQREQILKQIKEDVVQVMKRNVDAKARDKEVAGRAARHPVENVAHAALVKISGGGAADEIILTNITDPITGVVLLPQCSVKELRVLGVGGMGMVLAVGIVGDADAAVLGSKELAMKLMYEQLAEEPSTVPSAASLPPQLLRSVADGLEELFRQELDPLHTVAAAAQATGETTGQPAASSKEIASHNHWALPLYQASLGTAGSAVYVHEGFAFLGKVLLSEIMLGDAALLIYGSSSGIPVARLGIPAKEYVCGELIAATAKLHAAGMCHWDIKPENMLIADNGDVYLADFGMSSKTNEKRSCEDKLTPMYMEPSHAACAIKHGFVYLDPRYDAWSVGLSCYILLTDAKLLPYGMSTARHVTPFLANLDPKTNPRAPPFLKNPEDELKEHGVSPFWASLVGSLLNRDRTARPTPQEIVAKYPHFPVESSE

SMILES | Km [1] [µM] | IC50 [2] [nM]
Nc1ncnc2c1ncn2[C@@H]1O[C@H](COP(=O)(O)OP(=O)(O)OP(=O)(O)O)[C@@H](O)[C@H]1O [ATP] | ~7.52 | 
CN[C@@H]1C[C@H]2O[C@@](C)([C@@H]1OC)n1c3ccccc3c3c4c(c5c6ccccc6n2c5c31)C(=O)NC4 [STS, staurosporine] |  | 291
